Tests used:
[1] = molecular target: T1, Danio rerio (zebrafish) DHFR (zDHFR) (Danio rerio, UniProt A0A8M1P929); assay: […] HSQC NMR; format: binding
T1 sequence (A0A8M1P929 1-190): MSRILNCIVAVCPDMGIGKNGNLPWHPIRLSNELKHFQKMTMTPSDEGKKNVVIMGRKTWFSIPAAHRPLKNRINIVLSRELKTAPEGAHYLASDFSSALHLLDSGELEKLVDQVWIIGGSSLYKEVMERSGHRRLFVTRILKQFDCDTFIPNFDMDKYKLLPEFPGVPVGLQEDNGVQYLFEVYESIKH

[2] = molecular target: T2, human dihydrofolate reductase (hDHFR) (Homo sapiens, UniProt P00374); assay: X-ray crystal structure; format: biochemical
T2 sequence (P00374 1-187): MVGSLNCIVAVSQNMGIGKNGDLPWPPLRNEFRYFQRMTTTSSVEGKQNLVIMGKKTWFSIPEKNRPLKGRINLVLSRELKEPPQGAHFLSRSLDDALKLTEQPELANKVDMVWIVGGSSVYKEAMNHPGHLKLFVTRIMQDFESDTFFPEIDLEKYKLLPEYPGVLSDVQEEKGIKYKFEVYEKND

[3] = molecular target: E. coli dihydrofolate reductase (ecDHFR) (Escherichia coli, UniProt P0ABQ4); assay: product inhibition of initial rate, absorbance at […] nm; format: biochemical
[4] = molecular target: E. coli dihydrofolate reductase (ecDHFR) N23PP S148A (Escherichia coli, UniProt P0ABQ4, INS23P/N23P/S148A); assay: as above; format: biochemical

Row | SMILES | 15N HSQC NMR [1] | IC50 [2] | IC50 [3] | IC50 [4]
1 | Nc1nc(=O)c2nc(CNc3ccc(C(=O)N[C@@H](CCC(=O)O)C(=O)O)cc3)cnc2[nH]1 [FOL, folic acid] | Each panel shows a superposition of E– NADP^+–FOL (model Michaelis complex, black) and E–NADP^+– THF |  |  | 
2 | NC(=O)c1ccc[n+]([C@@H]2O[C@H](COP(=O)(O)OP(=O)(O)OC[C@H]3O[C@@H](n4cnc5c(N)ncnc54)[C@H](OP(=O)(O)O)[C@@H]3O)[C@@H](O)[C@H]2O)c1 [NADP+, NADP^+] |  | ~620 µM | 6520 µM | 1270 µM

Source: PMC3823643 (Nature structural & molecular biology, 2013)
